Holding throughout (format): cell-based
For one experiment, the system named is SNF96.2 cells. Nature of the experiment: RASOpathie-Model, MTT assay for cell viability in 96 well cell culture plate. Conditions: SNF96.2, 48 h treatment. The method, then: FIG. 5: RASOpathie-Model of Alexandrine dihydrochloride; MTT assay for cell viability in 96 well cell culture plate Cells were treated with Alexandrine dihydrochloride for 48 h and cell viability was evaluated by MTT assay. DMSO-treated cells were set as 1. The results shown are mean±SEM from 3 independent experiments.

Another experiment relates to T24 cells. Nature of the experiment: Soft agar colony formation assay, colonies stained with MTT. As to conditions: Homo sapiens, T-24; T24, growth in soft agar, MTT absorbance at 570 nm, 3 independent experiments. The method, then:
(§1) Metabolic activity was quantified using Cell Proliferation Kit I (Roche, Basel, Switzerland). Cells were seeded in 96-well cell culture plates, using 5000 cells per well for NCI-H358 cells. After treatment, 10 μl of MTT solution was added and incubated for 2 h in CO2 incubator. Then 100 μl of solubilization buffer was added to each well and incubated overnight in CO2 incubator. Cell viability, assessed by the amount of metabolized MTT, was quantified by measuring absorbance at 570 nm. MTT assay for the growth of different tumor cell lines with RAS mutations in soft agar Alexandrine dihydrochloride. NCI-H358, H358, H2122, ASPC-1, HCT-116, T24 and HT1080 cells were used for the soft agar colony formation assay. After the treatment with Alexandrine dihydrochloride, the colonies were stained with MTT and the value was quantified by measuring absorbance at 570 nm after solubilization. The results represent mean±SSEM from 3 independent experiments.

The subject of the next experiment is NCI-H2122 cells. Described as above. As to conditions: Homo sapiens; NCI-H2122, growth in soft agar, MTT absorbance at 570 nm, 3 independent experiments. The method, then:
as §1

Another experiment relates to HCT-116 cells. Described as above. As to conditions: Homo sapiens; HCT-116, growth in soft agar, MTT absorbance at 570 nm, 3 independent experiments. Here is the method:
as §1

Another experiment relates to HT1080 cells. The experiment is described as above. As to conditions: Homo sapiens, HT-1080; HT1080, growth in soft agar, MTT absorbance at 570 nm, 3 independent experiments. The method, then: as §1
In a further experiment the test system is NCI-H358 cells. The experiment is described as above. As to conditions: Homo sapiens; NCI-H358, growth in soft agar, MTT absorbance at 570 nm, 3 independent experiments. The method, then:
as §1

A further experiment relates to ASPC1 cells. The description is as above. As to conditions: Homo sapiens; ASPC1, growth in soft agar, MTT absorbance at 570 nm, 3 independent experiments. The method, then: as §1
In a further experiment the target is KRAS G12V (Homo sapiens, UniProt P01116, G12V). Nature of the experiment: NanoBit assay for RAS activation (LgBiT-RAS / SmBiT-CRAF RBD). As to conditions: KRAS G12V with CRAF RBD, 2 h with inhibitor in serum free DMEM. The method, then: (§2) FIGS. 1a) and 1b): NanoBit assay for RAS activation (KRAS G12V, NRAS G12V, HRAS G12V) N-terminal LgBiT and C-terminal SmBiT construct was purchased from Promega and K, N and HRAS G12V (full length) was cloned with Xho I and Bgl II to LgBit and CRAF Ras binding domain (1-149) was cloned with EcoRI and Bgl II to SmBit. For transfections, 1 μg or 2 μg of (12 well/6 well) plasmids were transfected into cells with 0.5 mM of PEI reagent in 100 μl or 200 μl PBS. One day after transfection, cells were harvested and seeded into 96 well white plates, half area (Greiner). After an additional day the medium was changed to serum free DMEM and the cells were incubated for 2 h with inhibitor. NanoGlo assay was performed according to the manufacturer's instructions. The luminescence was measured using Tecan infinite (Tecan).

The next experiment has as its target HRAS G12V (Homo sapiens, UniProt P01112, G12V). The description is as above. As to conditions: HRAS G12V with CRAF RBD, 2 h with inhibitor in serum free DMEM. The method, then: as §2
The target of another experiment is NRAS G12V (Homo sapiens, UniProt P01111, G12V). Described as above. Conditions: NRAS G12V with CRAF RBD, 2 h with inhibitor in serum free DMEM. The method, then:
as §2

In experiment [1] the test system is BaF3 KRAS G12C/Y96D cells. The experiment can be described thus: MTT assay for cell viability in 96 well cell culture plate. As to conditions: Mus musculus, 48 h treatment. The method, then: (§3) FIGS. 4a) and 4b): MTT assay for cell viability in 96 well cell culture plate Cells were treated with Alexandrine dihydrochloride for 48 h and cell viability was evaluated by MTT assay. DMSO-treated cells were set as 1. The results shown are mean±SEM from 3 independent experiments.

Another experiment has as its system BaF3 KRAS G12C cells. The description is as above. Conditions: Mus musculus, 48 h treatment. Here is the method:
as §3

Experiment [2] has as its system KRAS mutants (G12V, G12C, G12D, G12C/Y96D). The experiment can be described thus: NanoBiT assay for the RAS GTP-loading in HeLa cells (LgBit-KRAS mutants / SmBit-CRAF-RBD). As to conditions: 2 h in serum-free DMEM, normalized to DMSO. The method, then:
FIG. 3: NanoBit assay for RAS activation (G12V, G12C, G12D, G12C/Y96D,)
NanoBiT assay for the RAS GTP-loading was performed in HeLa cells transfected with LgBit-KRAS mutants and SmBit-CRAF-RBD. Cells were treated with Alexandrine dihydrochloride for 2 h in serum-free DMEM. After incubation, the substrate for NanoLuc was added, and the luminescence was measured in a multiplate reader. Data were normalized to cells transfected with the indicated mutant and exposed to DMSO for 2 h. DMSO-treated cells were set as 1. The bars represent mean±SEM from 3 independent experiments.

Counter-ions that a name gives are not always drawn.

Sequence of HRAS G12V (P01112 1-186 G12V): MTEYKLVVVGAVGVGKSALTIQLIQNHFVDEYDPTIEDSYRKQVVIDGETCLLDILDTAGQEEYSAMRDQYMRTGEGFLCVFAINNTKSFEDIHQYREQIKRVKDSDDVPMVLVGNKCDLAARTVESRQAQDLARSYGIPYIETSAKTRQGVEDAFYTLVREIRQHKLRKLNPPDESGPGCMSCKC
Sequence of KRAS G12V (P01116 1-186 G12V): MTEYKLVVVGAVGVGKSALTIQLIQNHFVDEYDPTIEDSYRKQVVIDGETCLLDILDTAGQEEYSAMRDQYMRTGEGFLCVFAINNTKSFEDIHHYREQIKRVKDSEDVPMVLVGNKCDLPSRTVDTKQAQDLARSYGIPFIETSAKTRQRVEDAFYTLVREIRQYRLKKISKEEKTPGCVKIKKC
Sequence of NRAS G12V (P01111 1-186 G12V): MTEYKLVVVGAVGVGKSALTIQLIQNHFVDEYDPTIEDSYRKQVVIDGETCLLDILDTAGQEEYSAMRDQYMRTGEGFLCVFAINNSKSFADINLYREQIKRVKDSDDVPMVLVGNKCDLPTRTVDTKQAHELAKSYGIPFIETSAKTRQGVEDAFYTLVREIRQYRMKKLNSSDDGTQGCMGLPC

Turning to `CCCCC(CC)CNC(=N)NC(=N)NCCCCCCNC(=N)NC(=N)NCC(CC)CCCC` (stereo not shown) [Alexandrine dihydrochloride, 1,1′-Hexamethylenebis[5-(2-ethylhex-1-yl)]biguanide dihydrochloride], the concentration for half-maximal inhibition (IC50) was determined as 0.35 µM with SNF96.2 cells; 1.7 µM in the experiment with T24 cells; 1.61 µM with NCI-H2122 cells; 1.91 µM in the experiment with HCT-116 cells; 0.31 µM in the experiment with HT1080 cells; 1.28 µM in the experiment with NCI-H358 cells. For the same compound, the results for the half-inhibitory concentration (IC50) (in the experiment with ASPC1 cells; in experiment [1]; in the experiment on BaF3 KRAS G12C cells) were 1.76 µM, 1.54 µM and 1.17 µM, respectively. Besides, at KRAS G12V, the “inhibition of K-RAS activation (NanoBit luminescence)” value is given as “inhibits”. Also, the “inhibition of H-RAS activation (NanoBit luminescence)” value against HRAS G12V was “inhibits”. Besides, at NRAS G12V, the “inhibition of N-RAS activation (NanoBit luminescence)” value is reported as “inhibits”. Moreover, in experiment [2], the “inhibition of RAS activation of KRAS mutants (NanoBiT luminescence)” value was “inhibits different RAS-isoforms”.

Values taken from US20260283986A1, “NOVEL RAS INHIBITORS” (KHR Biotec GmbH, priority 2022, published 2026).
